Reference: the supplement of paper PMC13207355

How the values were obtained:
Details in all cases: exposure time: 72 h
E31 [1] = patient-derived glioblastoma stem cells of proneural subtype; assay: surviving fraction (nuclei count normalised to DMSO); higher = more cells surviving (less toxic)
E28 [2] = patient-derived glioblastoma stem cells of classical subtype; assay: as above
E21 [3] = patient-derived glioblastoma stem cells of mesenchymal subtype; assay: as above
E13 [4] = patient-derived glioblastoma stem cells of classical subtype; assay: as above
FT3469 [5] = normal neural stem cell line; assay: as above
E34 [6] = patient-derived glioblastoma stem cells of proneural subtype; assay: as above
E57 [7] = patient-derived glioblastoma stem cells of mesenchymal subtype; assay: as above
E31 [8] = assay: phenotypic distance (Euclidean, principal components) from DMSO controls (arbitrary units); higher = stronger morphological change
E28 [9] = assay: as above
E21 [10] = assay: as above
E13 [11] = assay: as above
FT3469 [12] = assay: as above
E34 [13] = assay: as above
E57 [14] = assay: as above
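Throughout, for phenotypic distance (Euclidean, principal components) from DMSO controls: cell Painting imaging in 384-well plates, CellProfiler features reduced to at least 20 principal components, Euclidean distance versus same-plate DMSO vehicle wells (0.1% v/v), median over six images per well.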
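Throughout, for surviving fraction (nuclei count normalised to DMSO): nuclei counted by high-content imaging of Hoechst-stained cells in laminin-coated 384-well plates, relative to 0.1% DMSO vehicle wells, with staurosporine as cell-death control.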

C=C(C)[C@H]1Cc2c(ccc3c2O[C@@H]2COc4cc(OC)c(OC)cc4[C@@H]2C3=O)O1 [Rotenone]
Details	phenotypic distance	surviving fraction
E13 [4], 4.1 nM	–	1.02
E13 [4], 12.3 nM	–	0.894
E13 [4], 37 nM	–	0.83
E13 [4], 111.1 nM	–	0.771
E13 [4], 333.3 nM	–	0.632
E13 [4], 1000 nM	–	0.566
E13 [4], 3000 nM	–	0.212
E13 [11], 4.1 nM	0.548	–
E13 [11], 12.3 nM	0.572	–
E13 [11], 37 nM	1.04	–
E13 [11], 111.1 nM	1.22	–
E13 [11], 333.3 nM	2.49	–
E13 [11], 1000 nM	3.77	–
E13 [11], 3000 nM	6.02	–
E21 [3], 4.1 nM	–	0.993
E21 [3], 12.3 nM	–	0.918
E21 [3], 37 nM	–	0.978
E21 [3], 111.1 nM	–	0.905
E21 [3], 333.3 nM	–	0.822
E21 [3], 1000 nM	–	0.511
E21 [3], 3000 nM	–	0.147
E21 [10], 4.1 nM	0.532	–
E21 [10], 12.3 nM	0.585	–
E21 [10], 37 nM	0.921	–
E21 [10], 111.1 nM	1.37	–
E21 [10], 333.3 nM	2.24	–
E21 [10], 1000 nM	3.52	–
E21 [10], 3000 nM	7.81	–
E28 [2], 4.1 nM	–	1.05
E28 [2], 12.3 nM	–	0.989
E28 [2], 37 nM	–	0.906
E28 [2], 111.1 nM	–	0.904
E28 [2], 333.3 nM	–	0.818
E28 [2], 1000 nM	–	0.648
E28 [2], 3000 nM	–	0.425
E28 [9], 4.1 nM	0.546	–
E28 [9], 12.3 nM	0.394	–
E28 [9], 37 nM	0.642	–
E28 [9], 111.1 nM	0.779	–
E28 [9], 333.3 nM	1.31	–
E28 [9], 1000 nM	2.44	–
E28 [9], 3000 nM	3.1	–
E31 [1], 4.1 nM	–	0.905
E31 [1], 12.3 nM	–	0.93
E31 [1], 37 nM	–	1
E31 [1], 111.1 nM	–	0.862
E31 [1], 333.3 nM	–	0.672
E31 [1], 1000 nM	–	0.385
E31 [1], 3000 nM	–	0.135
E31 [8], 4.1 nM	0.668	–
E31 [8], 12.3 nM	0.711	–
E31 [8], 37 nM	2.14	–
E31 [8], 111.1 nM	1.02	–
E31 [8], 333.3 nM	1.3	–
E31 [8], 1000 nM	2.13	–
E31 [8], 3000 nM	5.49	–
E34 [6], 4.1 nM	–	1.04
E34 [6], 12.3 nM	–	1.04
E34 [6], 37 nM	–	0.855
E34 [6], 111.1 nM	–	0.843
E34 [6], 333.3 nM	–	0.755
E34 [6], 1000 nM	–	0.786
E34 [6], 3000 nM	–	0.473
E34 [13], 4.1 nM	0.805	–
E34 [13], 12.3 nM	1	–
E34 [13], 37 nM	0.736	–
E34 [13], 111.1 nM	0.699	–
E34 [13], 333.3 nM	1.76	–
E34 [13], 1000 nM	1.95	–
E34 [13], 3000 nM	3.52	–
E57 [7], 4.1 nM	–	1.04
E57 [7], 12.3 nM	–	1.05
E57 [7], 37 nM	–	0.983
E57 [7], 111.1 nM	–	0.959
E57 [7], 333.3 nM	–	0.941
E57 [7], 1000 nM	–	0.821
E57 [7], 3000 nM	–	0.188
E57 [14], 4.1 nM	0.304	–
E57 [14], 12.3 nM	0.356	–
E57 [14], 37 nM	0.67	–
E57 [14], 111.1 nM	0.385	–
E57 [14], 333.3 nM	1.23	–
E57 [14], 1000 nM	1.95	–
E57 [14], 3000 nM	6.35	–
FT3469 [5], 4.1 nM	–	1.12
FT3469 [5], 12.3 nM	–	0.838
FT3469 [5], 37 nM	–	0.826
FT3469 [5], 111.1 nM	–	0.877
FT3469 [5], 333.3 nM	–	0.897
FT3469 [5], 1000 nM	–	0.744
FT3469 [5], 3000 nM	–	0.448
FT3469 [12], 4.1 nM	0.458	–
FT3469 [12], 12.3 nM	0.898	–
FT3469 [12], 37 nM	0.644	–
FT3469 [12], 111.1 nM	1.18	–
FT3469 [12], 333.3 nM	1.03	–
FT3469 [12], 1000 nM	2.14	–
FT3469 [12], 3000 nM	3.61	–
